Measurements from patent US10173968B2, “Bishydrazone-based antifungal agents” (University of Kentucky Research Foundation, priority 2016, dated 2019).
Converted amounts (≈) assume the structure as drawn. Read-outs that look alike come from different tables or passages of the source.

Assays:
P. aeruginosa ATCC 27853 = assay: Antibacterial MIC, double-dilution method; format: cell-based; conditions: Pseudomonas aeruginosa, ATCC27853, strain I, Gram-negative, read-out: MIC
Method in brief: (§1)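 Step one: single-point test of each compound at 500 μM. Step two: MIC determination across doubling dilutions.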

B. subtilis 168 = assay: Antibacterial MIC, double-dilution method; format: cell-based; conditions: Bacillus subtilis, strain A, Gram-positive
Method in brief: as §1

VRE = assay: Antibacterial MIC, double-dilution method; format: cell-based; conditions: Enterococcus, strain D, Gram-positive, read-out: MIC
Method in brief: as §1

MRSA = assay: Antibacterial MIC, double-dilution method; format: cell-based; conditions: Staphylococcus aureus, strain C, Gram-positive, read-out: MIC
Method in brief: as §1

E. cloacae ATCC 13047 = assay: Antibacterial MIC, double-dilution method; format: cell-based; conditions: Enterobacter cloacae, ATCC13047, strain F, Gram-negative, read-out: MIC
Method in brief: as §1

S. enterica ATCC 14028 = assay: Antibacterial MIC, double-dilution method; format: cell-based; conditions: Salmonella enterica, ATCC14028, strain J, Gram-negative, read-out: MIC
Method in brief: as §1

K. pneumoniae ATCC 27736 = assay: Antibacterial MIC, double-dilution method; format: cell-based; conditions: Klebsiella pneumoniae, ATCC27736, strain H, Gram-negative, read-out: MIC
Method in brief: as §1

E. coli MC1061 = assay: Antibacterial MIC, double-dilution method; format: cell-based; conditions: Escherichia coli, strain G, Gram-negative, read-out: MIC
Method in brief: as §1

M. smegmatis MC2-155 = assay: Antibacterial MIC, double-dilution method; format: cell-based; conditions: Mycolicibacterium smegmatis, MC2155, strain K, mycobacterial, read-out: MIC
Method in brief: as §1

[1] = tested on: L. monocytogenes ATCC 19115; assay: Antibacterial MIC, double-dilution method; format: cell-based; conditions: Listeria monocytogenes, ATCC19115, strain B, Gram-positive, read-out: MIC
Method in brief: as §1

A. baumannii ATCC 19606 = assay: Antibacterial MIC, double-dilution method; format: cell-based; conditions: Acinetobacter baumannii, ATCC19606, strain E, Gram-negative, read-out: MIC
Method in brief: as §1

[2] = tested on: all bacterial strains tested; assay: Antibacterial MIC, summary over the panel; format: cell-based; conditions: read-out: MIC, span over all bacterial strains tested
Procedure: MIC values were determined against a variety of Gram-positive (strains A-D) and Gram-negative (E-J) bacterial and mycobacterial (K) strains using the double-dilution method, as previously published. Preliminary screening was performed using 500 μM of each compound.

C. albicans ATCC 1003 = assay: Antifungal MIC, CLSI M27-A3 microbroth dilution; format: cell-based, Candida albicans; conditions: Candida albicans, ATCC1003, read-out: MIC
Procedure: (§2) In vitro MIC testing was performed according to the CLSI M27-A3 standard microbroth dilution methodology for the susceptibility testing of yeasts with minor modifications.

C. albicans ATCC 90819 = assay: Antifungal MIC, CLSI M27-A3 microbroth dilution; format: cell-based, Candida albicans; conditions: Candida albicans, ATCC90819, C. albicans ATCC 90819, resistant to FLC, ITC, and VOR, read-out: MIC
Procedure: as §2

C. albicans ATCC 2310 = assay: Antifungal MIC, CLSI M27-A3 microbroth dilution; format: cell-based, Candida albicans; conditions: Candida albicans, ATCC2310, C. albicans ATCC 2310, susceptible to FLC, ITC, and VOR, read-out: MIC
Procedure: as §2

C. albicans ATCC 1237 = assay: Antifungal MIC, CLSI M27-A3 microbroth dilution; format: cell-based, Candida albicans; conditions: Candida albicans, ATCC1237, C. albicans ATCC 1237, resistant to FLC, ITC, and VOR, read-out: MIC
Procedure: as §2

C. albicans ATCC 2876 = assay: Antifungal MIC, CLSI M27-A3 microbroth dilution; format: cell-based, Candida albicans; conditions: Candida albicans, ATCC2876, C. albicans ATCC 2876, susceptible to FLC, ITC, and VOR, read-out: MIC
Procedure: as §2

C. albicans ATCC 64124 = assay: Antifungal MIC, CLSI M27-A3 microbroth dilution; format: cell-based, Candida albicans; conditions: Candida albicans, ATCC64124, C. albicans ATCC 64124, resistant to FLC, ITC, and VOR, read-out: MIC
Procedure: as §2

C. albicans ATCC 10231 = assay: Antifungal MIC, CLSI M27-A3 microbroth dilution; format: cell-based, Candida albicans; conditions: Candida albicans, ATCC10231, C. albicans ATCC 10231, resistant to FLC, ITC, and VOR, read-out: MIC
Procedure: as §2

[3] = tested on: C. albicans strains (panel of seven); assay: Antifungal MIC, summary over the panel; format: cell-based, Candida albicans
Procedure: In vitro MIC testing was performed according to the CLSI M27-A3 standard microbroth dilution methodology for the susceptibility testing of yeasts with minor modifications. […] MIC values were read visually for all tested compounds, and the endpoint was determined as the minimum concentration of compound that yielded complete inhibition relative to growth control.

[4] = C. albicans ATCC 1003, converted from μg/mL

| Structure (SMILES) | MIC (P. aeruginosa ATCC 27853; converted from μM) [µg/mL] | MIC (P. aeruginosa ATCC 27853; range 0.5 to 500 μM) [µM] | MIC (B. subtilis 168; converted from μM) [µg/mL] | MIC (B. subtilis 168; range 0.5 to 500 μM) [µM] | MIC (VRE; converted from μM) [µg/mL] | MIC (VRE; range 0.5 to 500 μM) [µM] | MIC (MRSA; converted from μM) [µg/mL] | MIC (MRSA; range 0.5 to 500 μM) [µM] | MIC (E. cloacae ATCC 13047; converted from μM) [µg/mL] | MIC (E. cloacae ATCC 13047; range 0.5 to 500 μM) [µM] | MIC (S. enterica ATCC 14028; converted from μM) [µg/mL] | MIC (S. enterica ATCC 14028; range 0.5 to 500 μM) [µM] | MIC (K. pneumoniae ATCC 27736; converted from μM) [µg/mL] | MIC (K. pneumoniae ATCC 27736; range 0.5 to 500 μM) [µM] | MIC (E. coli MC1061; converted from μM) [µg/mL] | MIC (E. coli MC1061; range 0.5 to 500 μM) [µM] | MIC (M. smegmatis MC2-155; converted from μM) [µg/mL] | MIC (M. smegmatis MC2-155; range 0.5 to 500 μM) [µM] | MIC ([1]; converted from μM) [µg/mL] | MIC ([1]; range 0.5 to 500 μM) [µM] | other results |
| --- | --- | --- | --- | --- | --- | --- | --- | --- | --- | --- | --- | --- | --- | --- | --- | --- | --- | --- | --- | --- | --- |
| CC1COc2c(N3CCN(C)CC3)c(F)cc3c(=O)c(C(=O)O)cn1c23 (stereo not drawn) [OFX, ofloxacin, reference compound] | 1.4 | 3.9 | ≤ 0.2 | ≤ 0.5 | 2.8 | 7.8 | 0.4 | 1 | ≤ 0.2 | ≤ 0.5 | 5.6 to 11.3 | 15.6 to 31.3 | 5.6 to 11.3 | 15.6 to 31.3 | 1.4 to 2.8 | 3.9 to 7.8 | 5.6 | 15.6 | 0.4 | 1 | MIC (A. baumannii ATCC 19606; converted from μM): ≤ 0.2 µg/mL; MIC (A. baumannii ATCC 19606; range 0.5 to 500 μM): ≤ 0.5 µM; MIC [2]: 0.5 to 31.3 µM (≈ 0.181 to 11.3 µg/mL) |
| Cl.N=C(N)N/N=C/c1ccc(-c2ccc(/C=N/Nc3ccc(Cl)cc3Cl)cc2)cc1 [Compound 7Ag, (E)-2-((4′-((E)-(2-(2,4-dichlorophenyl)hydrazono)methyl)-[1,1′-biphenyl]-4-yl)methylene)hydrazine-1-carboximidamide hydrochloride] | > 231 | > 500 | > 231 | > 500 | 3.6 | 7.8 | 3.6 | 7.8 | > 231 | > 500 | > 231 | > 500 | > 231 | > 500 | > 231 | > 500 | 1.8 | 3.9 | 3.6 | 7.8 | melting point: 356 to 358 °C; MIC (A. baumannii ATCC 19606; converted from μM): > 231 µg/mL; MIC (A. baumannii ATCC 19606; range 0.5 to 500 μM): > 500 µM; MIC (C. albicans ATCC 1003; [4]): 16.8 µM; MIC (C. albicans ATCC 1003): 7.8 µg/mL; MIC (C. albicans ATCC 90819; converted from μg/mL): 67.8 µM; MIC (C. albicans ATCC 90819): 31.3 µg/mL; MIC (C. albicans ATCC 2310; converted from μg/mL): 16.8 µM; MIC (C. albicans ATCC 2310): 7.8 µg/mL; MIC (C. albicans ATCC 1237; converted from μg/mL): 33.8 µM; MIC (C. albicans ATCC 1237): 15.6 µg/mL; MIC (C. albicans ATCC 2876; converted from μg/mL): 33.8 µM; MIC (C. albicans ATCC 2876): 15.6 µg/mL; MIC (C. albicans ATCC 64124; converted from μg/mL): 67.8 µM; MIC (C. albicans ATCC 64124): 31.3 µg/mL; MIC (C. albicans ATCC 10231; converted from μg/mL): 16.8 µM; MIC (C. albicans ATCC 10231): 7.8 µg/mL; MIC ([3]; Candida albicans, all, most or majority of the fungal strains, read-out: MIC, span over C. albicans strains): 7.8 to 15.6 µg/mL |
| Cl.N=C(N)N/N=C/c1ccc(-c2ccc(/C=N/Nc3ccccc3Br)cc2)cc1 [Compound 7Ab, (E)-2-((4′-((E and Z)-(2-(2-Bromophenyl)hydrazono)methyl)-[1,1′-biphenyl]-4-yl)methylene)hydrazine-1-carboximidamide monohydrochloride] | > 235 | > 500 | > 235 | > 500 | 0.9 | 2 | 0.9 | 2 | > 235 | > 500 | > 235 | > 500 | > 235 | > 500 | > 235 | > 500 | 1.8 | 3.9 | 0.9 | 2 | melting point: > 380 °C; MIC (A. baumannii ATCC 19606; converted from μM): > 235 µg/mL; MIC (A. baumannii ATCC 19606; range 0.5 to 500 μM): > 500 µM; MIC (C. albicans ATCC 1003; [4]): 4.1 µM; MIC (C. albicans ATCC 1003): 2 µg/mL; MIC (C. albicans ATCC 90819; converted from μg/mL): 8.3 µM; MIC (C. albicans ATCC 90819): 3.9 µg/mL; MIC (C. albicans ATCC 2310; converted from μg/mL): 8.3 µM; MIC (C. albicans ATCC 2310): 3.9 µg/mL; MIC (C. albicans ATCC 1237; converted from μg/mL): 8.3 µM; MIC (C. albicans ATCC 1237): 3.9 µg/mL; MIC (C. albicans ATCC 2876; converted from μg/mL): 8.3 µM; MIC (C. albicans ATCC 2876): 3.9 µg/mL; MIC (C. albicans ATCC 64124; converted from μg/mL): 8.3 µM; MIC (C. albicans ATCC 64124): 3.9 µg/mL; MIC (C. albicans ATCC 10231; converted from μg/mL): 4.1 µM; MIC (C. albicans ATCC 10231): 2 µg/mL; antifungal activity in words ([3]; against all fungal strains tested): excellent antifungal activities |
